Source: US20190048391A1, “COMPOSITIONS AND METHODS FOR IDENTIFYING ENZYME MODULATORS OR INHIBITORS” (priority 2013, published 2019)
Peptide text beside a SMILES is read from it. * marks the point of attachment. Decanoyl = CCCCCCCCCC(=O)*; CH2Cl = ClC*

Tests used:
Format in all cases: cell-based
Furin [1] = biological target: T1, Furin (Homo sapiens, UniProt P09958); experiment: flow cytometry of FLAG surface expression in SupT1 clones stably expressing the wt gp120/gp41 boundary scaffold; details: SupT1 clones expressing wt gp120/41 boundary, FITC anti-FLAG, 0.9% without inhibitor
T1 construct: endogenous in cells; host or cells: SupT1 T-cell clones stably transduced with pBMN-gp160 min-wt
T1 sequence (P09958 108-794): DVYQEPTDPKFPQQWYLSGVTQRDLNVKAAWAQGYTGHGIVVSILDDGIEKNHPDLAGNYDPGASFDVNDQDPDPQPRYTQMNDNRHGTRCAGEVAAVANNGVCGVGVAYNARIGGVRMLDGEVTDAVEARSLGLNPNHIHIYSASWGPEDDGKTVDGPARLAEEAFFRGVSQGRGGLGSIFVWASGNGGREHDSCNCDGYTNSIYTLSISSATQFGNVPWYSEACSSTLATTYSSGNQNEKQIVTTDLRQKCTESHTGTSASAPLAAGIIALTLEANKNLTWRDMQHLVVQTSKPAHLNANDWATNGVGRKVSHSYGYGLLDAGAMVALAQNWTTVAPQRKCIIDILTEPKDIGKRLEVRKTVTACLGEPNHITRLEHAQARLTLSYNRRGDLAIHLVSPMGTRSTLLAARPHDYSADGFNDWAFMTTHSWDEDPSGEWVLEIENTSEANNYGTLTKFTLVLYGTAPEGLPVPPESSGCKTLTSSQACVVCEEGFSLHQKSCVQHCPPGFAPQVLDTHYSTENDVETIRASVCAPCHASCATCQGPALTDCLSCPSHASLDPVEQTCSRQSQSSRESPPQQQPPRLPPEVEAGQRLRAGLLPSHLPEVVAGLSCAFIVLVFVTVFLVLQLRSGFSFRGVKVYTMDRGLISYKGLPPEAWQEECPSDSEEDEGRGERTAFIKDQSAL
Source text: In alternative embodiments, cell-based assays of the invention comprise use of a double-tagged engineered scaffold (of the invention) that allows discrimination between cleaved and non-cleaved events based on the cell surface expression of one or two tags, respectively. In alternative embodiments the scaffold protein travels to the cell surface and retains the FLAG tag only when processing of the gp120/gp41 boundary within the gp160 Env precursor is inhibited, e.g., by a putative drug. […]
Clonal populations should drastically increase robustness as 100% of the cells are expected to express the assay scaffold. […] Selected clones sorted into a 96-well plate, were amplified for a period of one month and analyzed by flow cytometry and fluorescence microscopy. […]
For that purpose, clones expressing the wt gp120/41 boundary were analyzed by flow cytometry following incubation with increasing concentration of the Furin inhibitor DCK. […] The same clones, treated with 50 mM DCK, were further analyzed by fluorescence microscopy prior and following incubation with 50 mM DCK. […]
Flow cytometry and sorting: Flow cytometry is performed on a BD FACSAria™ and/or FACSCanto (SDSU FACS core facility) with 488 nm and 633 nm lasers. Data is collected using FACSDiva 6.1.1™ software (BD Biosciences. San Jose, Calif.) and analyzed by FLOWJO™ (Tree Star, Inc., Ashland, Oreg.).

Furin [2] = biological target: T1, Furin; experiment: fluorescence microscopy (HA-FITC, FLAG-CY3) of SupT1 clones stably expressing the wt gp120/gp41 boundary scaffold; details: 50 mM DCK
Procedure: For that purpose, clones expressing the wt gp120/41 boundary were analyzed by flow cytometry following incubation with increasing concentration of the Furin inhibitor DCK. FLAG surface expression is progressively recovered at 10 mM and 50 mM DCK, increasing form 0.9% to 39% and then 90% (FIG. 7). The same clones, treated with 50 mM DCK, were further analyzed by fluorescence microscopy prior and following incubation with 50 mM DCK. The mutant version was used as control.
FIG. 8 illustrates: Fluorescence microscopy images of SupT1 clones stably expressing the assay (as with FIGS. 5, 6 and 7, above). Clones expressing wild type (wt) or mutant version of the boundary were analyzed with HA-FITC and FLAG-CY3. Visible light, individual channels and merge are shown. I: Inhibitor, BF: Bright Field.

[3] = test system: cleavage of wildtype HIV-1 envelope boundary by Furin or similar enzymes; experiment: multiplexed tdTomato-barcoded SupT1 flow cytometry assay, wildtype HIV-1 envelope boundary substrate; details: DCK treatment; wildtype HIV-1 envelope boundary population
Source text: (§1) As example, FIG. 15 schematically illustrates a fluorescent flow cytometry analysis of three SupT1 T cell lines, each carrying a different substrate within the context of the assay elements. The distinct cell lines were previously genetically barcoded with different levels of tdTomato fluorescent protein. In that manner, the assay cells, when analyzed for tdTomato in the PE channel (FIG. 15A, panel A) show three populations (negative, dim, and bright tdTomato). […] The HA positive/FLAG positive population reveal Population 2 (dim for tdTomato expressing the mutant HIV envelope boundary; env-mut (R511S)).
(§2) FIG. 16 schematically illustrates a fluorescent flow cytometry analysis in the PE channel for td Tomato expression and FITC channel for FLAG expression. As a reminder, in the assay the second tag (FLAG here) is lost if cleavage occurs while the scaffold protein travels to the cell surface. […] When stained for FLAG, only population 2 (mutant HIV-1 boundary) retains the tag, while wild type HIV-1 boundary and DenV pr-M, as expected, lost it.
(§3) In alternative embodiments, exemplary assays of the invention are used for drug discovery. As a proof of principle, the same experiment with the three bar-coded populations was repeated in the presence of DCK, an inhibitor of Furin and similar protein convertases that are active in the Golgi/TransGolgi network. […]

[4] = test system: cleavage of DenV pr-M boundary; experiment: multiplexed tdTomato-barcoded SupT1 flow cytometry assay, DenV pr-M boundary substrate; details: DCK treatment; DenV pr-M population
Source text: as §1, §2, §3

CCCCCCCCCC(=O)N[C@@H](CCCN=C(N)N)C(=O)N[C@H](C(=O)N[C@@H](CCCCN)C(=O)N[C@@H](CCCN=C(N)N)C(=O)CCl)C(C)C [DCK] (Decanoyl-RVKR-CH2Cl)
FLAG surface expression (Furin [1]; 10 mM DCK): 39% | FLAG surface expression (Furin [1]; 50 mM DCK): 90% | red fluorescence (FLAG-CY3) of wt clones (Furin [2]): red fluorescence is restored | second tag (FLAG) cell surface expression [3]: reconstitutes the second tag (FLAG) cell surface expression | inhibition of cleavage (FLAG reconstitution) [4]: not inhibited by DCK
